Measurements reported in article PMC6078987, “Molecular insights into antibiotic resistance - how a binding protein traps albicidin” (Nature Communications, 2018).
pKd: −log10 of the molar value. ≈ marks a conversion by molar mass, not a printed value. Entries after “also recorded” stand apart in the source; their conditions may differ.

Assays:
AlbAS [1] = target: T1, AlbAS (Klebsiella oxytoca, UniProt Q8KRS7); assay: 1H-15N HSQC NMR binding assay; settings: 15N-labeled AlbAS, 1.5-fold excess of ligand
T1 sequence (Q8KRS7 1-221): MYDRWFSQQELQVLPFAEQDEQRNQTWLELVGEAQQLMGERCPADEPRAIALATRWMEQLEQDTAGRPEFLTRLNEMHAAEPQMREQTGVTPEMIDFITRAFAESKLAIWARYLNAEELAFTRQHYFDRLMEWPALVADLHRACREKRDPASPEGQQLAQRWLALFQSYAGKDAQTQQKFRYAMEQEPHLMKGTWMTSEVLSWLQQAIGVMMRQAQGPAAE
Protocol: For binding studies with albicidin and its derivatives, each ligand was dissolved in 100% d6-DMSO and added to ^15N-labeled AlbAS or ^2H, ^15N-labeled AlbAL in 50 mM sodium hydrogen phosphate (pH 6.8), 150 mM NaCl buffer (usually 0.24 mM AlbAS or AlbAL in 85% buffer, 5% d6-DMSO, and 10% D2O) yielding a 1.5-fold excess of the ligand. After incubation for 20 min at room temperature in the dark, the sample was centrifuged at 20 000 × g for 3 min and the supernatant was transferred to a 5 mm NMR tube. The AlbAS blank sample (Supplementary Figure 14) was measured in 100% buffer without addition of ligands and DMSO. Spectra were recorded on a Bruker Avance III 700 MHz NMR spectrometer (Bruker BioSpin, Rheinstetten, Germany) with a TXI probe head. Standard Bruker pulse sequences were used. 2D ^1H-^15N HSQC spectra were recorded at 298 K with acquisition times of 90 and 22 ms for the ^1H and ^15N dimension, respectively. The experiments were accumulated with ≥16 scans depending on protein sample concentration. 2D ^1H-^15N TROSY spectra were accumulated with 256 scans and acquisition times of 90 and 22 ms for the ^1H and ^15N dimension, respectively. Several AlbAS–albicidin samples were measured with the same result and a representative spectrum is given for the figures in the main manuscript and the SI. NMR experiments with AlbAS and albicidin analogs were conducted once with accumulation of ≥16 scans depending on protein concentration. For alignment of HSQC and TROSY spectra, the TROSY spectrum was corrected by 1/2 ^1JNH in both dimensions. […]

Staphylococcus aureus = tested on: Staphylococcus aureus; set-up: method as in PMID 17074789, PMID 25504839; settings: cited from earlier work
AlbAS [2] = target: T1, AlbAS; assay: CD-detected thermal unfolding of AlbAS; format: binding; settings: 1.5-fold ligand, 20 µM protein; AlbAS alone 66 °C
Protocol: For determination of the melting temperature and information on protein-ligand stability, CD measurements were performed on a J-815 CD spectrometer (Jasco, Groß-Umstadt, Germany). Protein samples (2.0 mM for AlbAS and 0.2 mM for AlbAL) were saturated with 1.5-fold albicidin and diluted to a protein concentration of 20 μM in order to ensure a final DMSO content of only 0.05% for AlbAS and 0.5% for AlbAL. A volume of 250 μL of the reaction mixture was transferred into a quartz cuvette with 1 mm path length. Six far-UV spectra were accumulated in a wavelength range of 195–300 nm (203–300 nm for AlbAL) at three different temperatures (10, 21, and 90 °C) with a scanning speed of 50 nm s^−1. For evaluation of the spectra the measured buffer blank (50 mM sodium hydrogen phosphate and 100 mM NaCl, pH 6.8) was subtracted from the averaged spectra. The temperature curves were recorded from 10–90 °C in 0.5 °C min^−1 steps while monitoring the ellipticity at 215 nm (218 nm for ALbAL). […] The melting temperatures of AlbAS, AlbAS–albicidin, AlbAS–compound 5, AlbAS–compound 7, AlbAL, and AlbAL–albicidin were determined by nonlinear regression of the measured data using Eq. (1). […] The Tm was thus determined by fitting the second transition representing the stabilized domain/species. […]

AlbA = target: AlbA; set-up: method as in PMID 9493391; settings: read-out: previously reported Kd; cited from earlier work
E. coli DH5α = assay: Agar diffusion assay; format: cell-based
Protocol: To verify the neutralizing ability of AlbAS, AlbAL, AlbASM, AlbASCTD, or AlbASNTD against different compounds, agar diffusion assays with the respective compounds were performed. An overnight culture of E. coli DH5α was diluted to an OD600 of 0.05 with 0.75% LB-agar. The protein-albicidin reaction mixture consisted of a 1:1 mixture of 40 μM albicidin (or derivatives) with 40 μM protein (either AlbAS or its variants AlbAL, AlbASM, AlbASNTD, and AlbASCTD). The mixture was incubated for 20 min at room temperature in the dark. Reaction mixtures of 30 μL were transferred in triplicates of 2 mm holes on the inoculated agar plate. The plates were evaluated concerning growth-inhibition zone after incubation for 18 h at 37 °C.

R. ornithinolytica = assay: MIC assay, clinical isolates; format: cell-based
Protocol: (§1) The MIC assay was performed by Antiinfectives Intelligence GmbH (Rheinbach, Germany) using internationally standardized protocols and employing clinical isolates of K. oxytoca, K. pneumoniae, R. ornithologica, P. aeruginosa, A. baumannii and E. cloacae.

Acinetobacter baumanii = assay: MIC assay, clinical isolates; format: cell-based; settings: Acinetobacter baumannii
Protocol: as §1

Klebsiella pneumoniae = assay: MIC assay, clinical isolates; format: cell-based; settings: seven Klebsiella pneumoniae strains
Protocol: as §1

Enterobacter cloacae = assay: MIC assay, clinical isolates; format: cell-based
Protocol: as §1

Salmonella enteritidis = tested on: Salmonella enteritidis; set-up: method as in PMID 17074789, PMID 25504839; settings: cited from earlier work
Escherichia coli = tested on: Escherichia coli; set-up: method as in PMID 17074789, PMID 25504839; settings: cited from earlier work

In the case of COc1c(NC(=O)c2ccc(NC(=O)c3ccc(NC(=O)[C@H](CC#N)NC(=O)c4ccc(NC(=O)/C(C)=C/c5ccc(O)cc5)cc4)cc3)c(OC)c2O)ccc(C(=O)O)c1O [albicidin], the “binding to AlbAS by HSQC signal pattern (in words)” value (AlbAS [1]) is listed as “strong ligand binding in the nM–pM range”, the MIC (Staphylococcus aureus) is listed as 4.0 µg/mL (≈ 4.75 µM) and the “melting temperature Tm of AlbAS upon ligand binding” value (AlbAS [2]) is listed as 81 °C. The pKd (AlbA) was 7.19, the “neutralization of antibacterial activity by AlbAL” value (E. coli DH5α; 40 µM compound pre-incubated with 40 µM AlbAL) was “albicidin-neutralizing effect” and the “neutralization of antibacterial activity by AlbAS” value (E. coli DH5α; 40 µM compound pre-incubated with 40 µM AlbAS) was “albicidin-neutralizing effect”. For the same compound, the “neutralization of antibacterial activity by AlbASCTD” value (E. coli DH5α; 40 µM compound with 40 µM AlbASCTD) was “failed to suppress the antibacterial effects; also recorded: not able to neutralize albicidin”, the “neutralization of antibacterial activity by AlbASM (N75A, R181A, Q205A)” value (E. coli DH5α; 40 µM compound with 40 µM AlbASM) was “not capable of efficiently suppressing the antibacterial activity” and the “neutralization of antibacterial activity by AlbASNTD” value (E. coli DH5α; 40 µM compound with 40 µM AlbASNTD) was “failed to suppress the antibacterial effects; also recorded: not able to neutralize albicidin”. The MIC (R. ornithinolytica) was ≥ 64 µg/mL, the MIC (Acinetobacter baumanii) was ≥ 64 µg/mL and the MIC (Klebsiella pneumoniae) was ≥ 64 µg/mL. For the same compound, the MIC (Enterobacter cloacae) was ≥ 64 µg/mL, the MIC (Salmonella enteritidis) was 0.5 µg/mL (≈ 0.593 µM) and the MIC (Escherichia coli) was 0.063 µg/mL (≈ 0.0747 µM).
